Here are results for eleven compounds from US11180811B2, “Molecular signatures of conditions associated with longevity” (The Brigham and Women's Hospital, Inc., priority 2014, dated 2021).

The test system of test [1] is Brain longevity gene expression signature. Description: Compounds that shift gene expression in the direction of longevity (Table 6), brain. From the text:
(§1) The methods, assays, and systems described herein can be useful in a number of areas, including the discovery and validation of new targets for reducing rate of aging, extending lifespan, reducing incidence and delaying onset of disease and improving overall health of aging populations. Furthermore, the invention can facilitate the discovery and development of drugs, biologicals and treatment regimens based on the above that favorably intervene in the aging process. For example, the gene expression signatures described herein can be used to choose target gene products in a therapeutic protocol, to elaborate the biological function of the target gene product in the aging process, and to identify compounds that alleviate deterioration associated with aging by modulating the activity of target gene products. For example, several compounds that shift gene expression in the direction of longevity have been identified or validated using the assays or methods described herein (Table 6).
(§2) In Table 6, several compounds that shift gene expression in the direction of longevity have been identified or validated.

Test [2] relates to mice. The following applies: elevated growth hormone treatment during development (Panici et al., 2010); cited from earlier work.
The subject of test [3] is Liver longevity gene expression signature. Description: Compounds that shift gene expression in the direction of longevity (Table 6), liver.
Text: as §1, §2

In test [4] the test system is Kidney longevity gene expression signature. Description: Compounds that shift gene expression in the direction of longevity (Table 6), kidney.
Text: as §1, §2

As to `CO[C@H]1/C=C\C=C(/C)C(=O)NC2=CC(=O)C(NCCN(C)C)=C(C[C@@H](C)C[C@H](OC)[C@H](O)[C@@H](C)/C=C(\C)[C@@H]1OC(N)=O)C2=O` [Alvespimycin], in test [1], the “Direction of lifespan associated with the compound's shift of gene expression (Increased lifespan / Decreased lifespan)” value is “Decreased”.
Regarding growth hormone, the Effect on lifespan result in test [2] is on record as “shortens lifespan”.
With `NC12CC3CC(CC(C3)C1)C2` [Amantadine], the “Direction of lifespan associated with the compound's shift of gene expression (Increased lifespan / Decreased lifespan)” value in test [1] is reported as “Increased”.
For Artemizole, in test [3], the “Direction of lifespan associated with the compound's shift of gene expression (Increased lifespan / Decreased lifespan)” value is “Increased”.
In the case of `C[C@@H]1C[C@H]2O[C@@H]2/C=C\C=C\C(=O)Cc2c(Cl)c(O)cc(O)c2C(=O)O1` [Monorden], the “Direction of lifespan associated with the compound's shift of gene expression (Increased lifespan / Decreased lifespan)” value in test [3] is “Decreased”.
Same read-out and setting: the same measure for `Oc1ccc(C=Cc2cc(O)cc(O)c2)cc1` [Resveratrol]: “Increased”.
Turning to `O[C@H]1[C@H]2c3cc4c(cc3CN3CCC(=C[C@@H]1O)[C@H]23)OCO4` [Lycorine], the “Direction of lifespan associated with the compound's shift of gene expression (Increased lifespan / Decreased lifespan)” value in test [4] was “Decreased”.
Turning to `CN(C)CCOC(C)(c1ccccc1)c1ccccn1` (centres unmarked) [Doxylamine], in test [3], the “Direction of lifespan associated with the compound's shift of gene expression (Increased lifespan / Decreased lifespan)” value is recorded as “Decreased”.
For `CCc1c2c(nc3ccc(OC(=O)N4CCC(N5CCCCC5)CC4)cc13)-c1cc3c(c(=O)n1C2)COC(=O)[C@]3(O)CC` [Irinotecan], the “Direction of lifespan associated with the compound's shift of gene expression (Increased lifespan / Decreased lifespan)” value in test [4] and in test [1] was “Increased” in each case.
With `CCCCC/C=C/C=C1/C(=O)C=C[C@@H]1C/C=C\CCCC(=O)O` [15Δ prostaglandin J2], the “Direction of lifespan associated with the compound's shift of gene expression (Increased lifespan / Decreased lifespan)” value in test [4], in test [1] and in test [3] was “Decreased” throughout.
As for `C[C@H]1O[C@@H](O[C@H]2CC[C@]3(C=O)[C@H]4CC[C@]5(C)[C@@H](C6=CC(=O)OC6)CC[C@]5(O)[C@@H]4CC[C@]3(O)C2)C[C@H](O)[C@@H]1O` [Helveticoside], the “Direction of lifespan associated with the compound's shift of gene expression (Increased lifespan / Decreased lifespan)” value in test [3] is recorded as “Increased”.
